Measured values as given in patent US5670538A, “Use of prodelphinidins for obtaining medicaments intended for the treatment of arthrosis” (Laboratoires Dolisos, priority 1992, dated 1997).

Key:
[1] = Production of OH° hydroxyl radicals (gamma irradiation, KMB substrate, ethylene by gas chromatography); type: biochemical; details: for % inhibition of the production of hydroxyl radicals: Substrate: KMB, relative to the controls
Procedure: 8. Production of OH° hydroxyl radicals
The products are dissolved in 10 ml flasks at the required concentration in phosphate buffer: 6.6.10^-2 M, pH 7.4 in the presence of alpha keto methiolbutyric acid (10^-3 M: KMB). After the flasks have been hermetically sealed, the samples are irradiated with gamma rays provided by a ^137 Cs source.
The OH° radicals produced by the gamma radiation react with the KMB to produce the ethylene detected by a gas chromatograph. The height of the ethylene peak is proportional to the quantity of free radicals formed in the medium (Weis et al., 1978).

[2] = system: human articular chondrocytes; assay: Radioimmunoassay of type II collagen (coll. II) produced in tridimensional culture of human chondrocytes; type: cell-based
Source text: The model used for testing the proanthocyanidols, namely the tridimensional culture of human chondrocytes allows chondrorepair to be quantified by the production of matrix substances: type II collagen, proteoglycans, and chondroresorption by the reduction in the levels of prostaglandin E2 and of OH° and O°2 type free radicals produced.
1. Tridimensional culture of human chondrocytes
The technique used has been described in detail (Bassleer et al., 1986).
Briefly, human articular chondrocytes are cultivated in DMEM (Dulbecco's Modification of Eagle's Medium--ICN--Gand, Belgium) with either Ultroser G 1% (GIBCO, Gand, Belgium) or 10% of foetal calf serum (ICN--Gand--Belgium), and 50 μg of ascorbic acid/ml added to it. The cartilage originates from the apparently normal zone of heads of human femur suffering from arthrosis, immediately after an operation carried out to insert a total hip prosthesis; it can also originate from the head of a healthy femur, but which has undergone a traumatism and has had to be replaced. This cartilage is then digested by clostridial collagenase 1 mg/ml (Boehringer-Mannheim, Germany) in a buffer (NaCl 120 mM, CaCl2 1 mM, KCl 5 mM, KH2 PO4 1 mM, NaHCO3 25 mM, glucose 2 mM and Hepes 30 mM, pH 7.4) for 24 hours. After 6 successive washings and centrifugations, the chondrocytes, isolated from their matrix, are cultured in flasks (10^6 cells/2 ml of culture medium) placed on a gyrator (10 rpm). The cultures are kept at 37° C. in an atmosphere of air 95%-CO2 5% (Bassleer et al., 1986). Cultivated under these conditions, after 4 to 5 days the chondrocytes form a tridimensional cluster in each flask. These clusters, which at first have a flocculent appearance, then tend to condense during the culture. After two weeks, their diameter is, in general, from 1 to 2 mm.
The fresh weight of the clusters increases with the duration of the culture, above all during the few first days.
3. Radioimmunoassay of type II collagen (coll. II)
The method for the radioimmunoassay of coll. II has been described in detail (Henrotin et al., 1990). The coll. II is extracted from human articular cartilage according to the technique described by Herbage et al. (1977). The antiserum against coll. II was obtained from rabbits according to the technique of Vaitukaitis et al. (1971).
The assay is carried out by sequential saturation. In the first instance, the radioimmunoassay is carried out in a 0.3 ml volume consisting of 0.2 ml of incubation buffer (PBS-50 mM PO4, 300 mM NaCl, 5 g/l BSA (W/V), 6.7 mM sodium azide, pH 7.4) containing the reference coll. II (0.5 to 500 ng) or the sample to be assayed and 0.1 ml of anti-coll. II antiserum from guinea pigs diluted to 1/5000 (24 hours at 4° C.). In the second instance, 0.1 ml of ^125 I-coll. II tracer labelled according to the iodogenic technique (Salacynski et al., 1979 and diluted so as to obtain 20,000 cpm/0.1 ml) is added. After 24 hours at 4° C., the collagen-antibody complexes are separated from the free radioactive coll. II by the double antibody system (Franchimont et al. 1983). Sequential saturation gives a sensitivity of 3 ng/tube. The accuracy of the method is 10%. The coefficients of the intra- and inter assay variation are 10% and 20% respectively.
The assay is specific to human articular type II collagen.
No cross reaction is obtained with bovine collagen of type I, III or IV.
The culture media are stored at -20° C. in the presence of enzymatic inhibitors (Oegema et al., 1975). These media are assayed by the radio immunological method without any treatment beforehand. The chondrocyte clusters are washed and dissociated with ultrasonics according to the method described for the assay of the PGs. After centrifugation (1500 rpm, 10 minutes), the residue is extracted using 500 mM acetic acid under agitation for 24 hours at 4° C. The supernatant of the homogenate and the extract of the residue are mixed together and assayed after equilibration at pH 7.4 using 4M NaOH.
The recovery of coll. […]

## Oc1cc(O)c2c(c1)O[C@H](c1cc(O)c(O)c(O)c1)[C@@H](O)[C@@H]2c1c(O)cc(O)c2c1O[C@H](c1cc(O)c(O)c(O)c1)[C@@H](O)[C@@H]2c1c(O)cc(O)c2c1O[C@H](c1cc(O)c(O)c(O)c1)[C@@H](O)C2 [Substance Ic, GC-(4 alpha→8) GC-(4 a→8)-GC]
[1]; 10^-3 M
  % inhibition of the production of hydroxyl radicals: 74%
[1]; 10^-4 M
  % inhibition of the production of hydroxyl radicals: 39%
[1]; 10^-5 M
  % inhibition of the production of hydroxyl radicals: 20%
[1]; Table 22
  Production of free radicals from KMB, effect in words: significantly inhibits
[2]; 1% Ultroser G, 1 μg/ml
  Average concentrations (m ± SD) of type II collagen in the clusters of chondrocytes at the end of 12 days of culture: 81 ± 6 ng per μg of DNA
  Collagen II in the clusters over 12 days, effect in words: stimulant
  Cumulative release of coll.II over 12 days, Abs: 256 ng/μg DNA/12 days
  Type II collagen released in the culture medium, effect in words: significant effect
[2]; 1% Ultroser G, 10 μg/ml
  Average concentrations (m ± SD) of type II collagen in the clusters of chondrocytes at the end of 12 days of culture: 94 ± 7 ng per μg of DNA
  Cumulative release of coll.II over 12 days, Abs: 292 ng/μg DNA/12 days
[2]; 1% Ultroser G, 100 μg/ml
  Average concentrations (m ± SD) of type II collagen in the clusters of chondrocytes at the end of 12 days of culture: 121 ± 13 ng per μg of DNA
  Cumulative release of coll.II over 12 days, Abs: 337 ng/μg DNA/12 days
[2]; 1% Ultroser G, culture time 0-4 days, 1 μg/ml
  Coll. II released in the culture medium: 149.4 ± 8.7 ng/μg DNA/96 h
[2]; 1% Ultroser G, culture time 0-4 days, 10 μg/ml
  Coll. II released in the culture medium: 162 ± 11 ng/μg DNA/96 h
[2]; 1% Ultroser G, culture time 0-4 days, 100 μg/ml
  Coll. II released in the culture medium: 182 ± 5.6 ng/μg DNA/96 h
[2]; 1% Ultroser G, culture time 0-8 days (so in the source), 1 μg/ml
  Coll. II released in the culture medium: 65.8 ± 7.4 ng/μg DNA/96 h
[2]; 1% Ultroser G, culture time 0-8 days (so in the source), 10 μg/ml
  Coll. II released in the culture medium: 70.5 ± 7.1 ng/μg DNA/96 h
[2]; 1% Ultroser G, culture time 0-8 days (so in the source), 100 μg/ml
  Coll. II released in the culture medium: 93.8 ± 10.5 ng/μg DNA/96 h
[2]; 1% Ultroser G, culture time 0-12 days (so in the source), 1 μg/ml
  Coll. II released in the culture medium: 41.2 ± 4.6 ng/μg DNA/96 h
[2]; 1% Ultroser G, culture time 0-12 days (so in the source), 10 μg/ml
  Coll. II released in the culture medium: 50.6 ± 4.2 ng/μg DNA/96 h
[2]; 1% Ultroser G, culture time 0-12 days (so in the source), 100 μg/ml
  Coll. II released in the culture medium: 61.1 ± 5.2 ng/μg DNA/96 h
[2]; Homo sapiens, Chondrocyte, 288 h, 1% Ultroser G, 1 μg/ml, control = 100, read-out: Cumulative release of coll.II over 12 days, %
  activity at 1 µg/mL: 134%
[2]; Homo sapiens, Chondrocyte, 288 h, 1% Ultroser G, 10 μg/ml, control = 100, read-out: Cumulative release of coll.II over 12 days, %
  activity at 10 µg/mL: 153%
[2]; Homo sapiens, Chondrocyte, 288 h, 1% Ultroser G, 100 μg/ml, control = 100, read-out: Cumulative release of coll.II over 12 days, %
  activity at 100 µg/mL: 176%
[2]; foetal calf serum, 10 and 100 μg/ml
  Type II collagen in the culture media, effect in words: increases
[2]; foetal calf serum, Table 18, 0-4 days, 10 μg/ml
  Coll. II released in the culture medium: 44.1 ± 6.98 ng/μg DNA/96 H
[2]; foetal calf serum, Table 18, 0-4 days, 100 μg/ml
  Coll. II released in the culture medium: 70.7 ± 10.3 ng/μg DNA/96 H
[2]; foetal calf serum, Table 18, 4-8 days, 10 μg/ml
  Coll. II released in the culture medium: 33.5 ± 3.71 ng/μg DNA/96 H
[2]; foetal calf serum, Table 18, 4-8 days, 100 μg/ml
  Coll. II released in the culture medium: 41.7 ng/μg DNA/96 H
[2]; foetal calf serum, Table 19, 0-4 days, 10 μg/ml
  Coll. II released in the culture medium: 37.9 ± 5.47 ng/μg DNA/96 H
[2]; foetal calf serum, Table 19, 0-4 days, 100 μg/ml
  Coll. II released in the culture medium: 53.2 ± 4.21 ng/μg DNA/96 H
[2]; foetal calf serum, Table 19, 4-8 days, 10 μg/ml
  Coll. II released in the culture medium: 23.3 ± 2.11 ng/μg DNA/96 H
[2]; foetal calf serum, Table 19, 4-8 days, 100 μg/ml
  Coll. II released in the culture medium: 33.5 ng/μg DNA/96 H
[2]; foetal calf serum, experiment 397, 4-8 days, 10 μg/ml
  Coll. II in the clusters: 85.9 ± 14.45 ng/μg DNA
[2]; foetal calf serum, experiment 397, 4-8 days, 100 μg/ml
  Coll. II in the clusters: 109.8 ng/μg DNA
[2]; foetal calf serum, experiment 397, 10 and 100 μg/ml
  Collagen II in the clusters, effect in words: An increase in collagen II is observed
